Measured values reported in patent US20250090489A1, “CATIONIC POLYMERIC NANOCARRIERS INHIBIT CHEMOTHERAPY-INDUCED CANCER METASTASIS AND COGNITIVE IMPAIRMENT” (The Trustees of Columbia University in the City of New York, priority 2022, published 2025).

Key:
[1] = Balb/c mice; compared to saline control
Method: In order to detect if mice experienced any behavioral changes under treatments, open field tests and pain sensitivity behavioral tests were performed.

[2] = tested on: MDA-MB-231 human breast tumor with lung metastasis; details: NSG mouse
From the text: The anticancer efficacy of the nanoparticles has been evaluated in a NSG mouse model bearing MDA-MB-231 human breast tumor with lung metastasis. […] A thorough characterization of lung metastasis has been performed with a combination of IVIS imaging, H&E staining, and machine learning.

Compound	distance traveled in open field test [1]	lung metastasis ([2]; MDA-MB-231, IVIS imaging, H&E staining, machine learning)	primary tumor inhibition efficacy ([2]; MDA-MB-231 tumor)
COc1cccc2c1C(=O)c1c(O)c3c(c(O)c1C2=O)C[C@@](O)(C(=O)CO)C[C@@H]3O[C@H]1C[C@H](N)[C@H](O)[C@H](C)O1 [doxorubicin]	significant attenuation in the distance	–	–
CC(=O)O[C@H]1C(=O)[C@@]2(C)[C@H]([C@H](OC(=O)c3ccccc3)[C@]3(O)C[C@H](OC(=O)[C@H](O)[C@@H](NC(=O)c4ccccc4)c4ccccc4)C(C)=C1C3(C)C)[C@]1(OC(C)=O)CO[C@@H]1C[C@@H]2O [paclitaxel free drug, paclitaxel]	–	shows no therapeutic effect to metastasis, and even induce more metastasis	inhibits primary tumor
